Experimental data as given in article PMC8522722, “Safety and Pharmacokinetics in Human Volunteers of Taniborbactam (VNRX-5133), a Novel Intravenous β-Lactamase Inhibitor” (Antimicrobial Agents and Chemotherapy, 2021).

How the values were obtained:
[1] = Safety and tolerability, treatment-emergent adverse events, SAD part; assay type: in vivo, human
Experimental: (§1) Eligible subjects were randomized to receive either taniborbactam or placebo in a 3:1 ratio within dose cohorts in both the SAD and MAD parts of the study. Each dose cohort in the SAD part of the study enrolled 8 subjects, and each dose cohort in the MAD part of the study enrolled 12 subjects. In the SAD part, subjects received 62.5, 125, 250, 500, 1,000, or 1,500 mg taniborbactam as a 2-h intravenous (i.v.) infusion. In the MAD part, subjects received 2-h intravenous i.v. infusions of 250, 500, or 750 mg taniborbactam q8h over 10 days, ending after a final morning dose on day 10 (total of 28 doses).
Safety was assessed based on the occurrence of adverse events and evaluation of laboratory tests (chemistry, hematology, urinalysis), physical examination, vital signs, and 12-lead electrocardiograms (ECGs) that were performed throughout the study. Safety was followed through 7 days postdose in the SAD part and followed through 7 days post-last dose in the MAD part.

[2] = Multiple-ascending-dose (MAD) pharmacokinetics in plasma and urine, healthy adult volunteers; assay type: in vivo, human; conditions: for AUCtau / Cmax / CLR,SS / CLSS / Vz / t1/2 / Ae / Fe: mean (%CV); for Tmax: median (range); for t1/2: terminal elimination; for Ae / Fe: urine through the dosing interval (8 h); for AUCtau mean ratio, last dose compared to first dose: day 10 vs day 1
Experimental: as §1
Blood samples for assay of taniborbactam in plasma were collected predose and at 1, 2, 2.25, 2.5, 2.75, 3, 4, 6, 8, 12, 26, and 50 h after the start of drug infusion in the SAD part. For the MAD part, blood samples to determine taniborbactam plasma concentrations were collected predose and at 1, 2, 2.25, 2.5, 2.75, 3, 4, 6, and 8 h following the first dose (day 1) and predose and at 1, 2, 2.25, 2.5, 2.75, 3, 4, 6, 10, 14, and 26 h following the last dose (day 10). Urine was collected predose and at intervals of 0 to 4, 4 to 8, 8 to 24, and 24 to 48 h after the start of the infusion in the SAD part for the higher-dose groups (500 to 1,500 mg taniborbactam). For the MAD part, urine was collected through the dosing interval following the last dose using collection intervals of 0 to 4 and 4 to 8 h after the start of the infusion. At the end of each urine collection interval, the volume of each urine collection was recorded and a sample was taken.
Plasma and urine samples were assayed for taniborbactam and screened for possible metabolites. Human dipotassium ethylenediaminetetraacetic acid (K2EDTA) plasma samples were processed using protein precipitation and assayed using ultra-high-performance liquid chromatography with tandem mass spectrometric detection (LC-MS/MS). Both low- and high-range methods were developed and validated for plasma samples, with calibration ranges of 5 to 5,000 ng/ml and 100 to 100,000 ng/ml, respectively. Acidified urine samples were processed using solid-phase extraction and assayed using a validated LC-MS/MS method with a calibration range of 5.0 to 5,000 ng/ml. For both matrices, separation was accomplished using a Waters Acquity HSS T3 column (Milford, MA) at 50°C, and gradient elution using 10 mM ammonium formate with 1% formic acid as mobile phase A and 50:50:1 acetonitrile:methanol:formic acid (vol/vol/vol) as mobile phase B. A triple quadrupole mass spectrometer (API Triple Quad 5500; AB Sciex, Framingham, MA) equipped with a turbo-ion spray set was used for detection in positive ion mode, and quantification was based on multiple reaction monitoring. The internal standard used in the assays was D4-taniborbactam.
Individual subject plasma and urine taniborbactam pharmacokinetic parameters were evaluated using noncompartmental analysis methods (Phoenix WinNonlin, Certara, Princeton, NJ). Single-dose pharmacokinetic parameters were determined in the SAD part, and both single-dose (day 1) and multiple-dose (day 10) pharmacokinetic parameters were determined in the MAD part. Estimated pharmacokinetic parameters included Cmax, time to Cmax (Tmax), AUCtau, AUC0–inf, t1/2, CL, VZ, Ae, Fe, and CLR. The actual sample times were used to calculate the pharmacokinetic parameters. Calculation of λZ was based on best fit of concentrations in the observed terminal elimination phase of a profile, and statistical inclusion of any parameter based on λZ required the goodness of fit statistic (R^2) to be greater than 0.8. Pharmacokinetic data were summarized using descriptive statistics by treatment. Dose proportionality based on Cmax and AUC was determined using linear regression to calculate the slope and 90% CI and observing whether a slope of 1 was included in the confidence interval. The dose proportionality analysis included subject body weight as a covariate in the analysis.

[3] = test system: Pseudomonas aeruginosa isolates; parameters: method as in ref 13, 14 = [13]; 13 Vidales A , Hackel M , Wise M , Sahm D . 2020 . Antimicrobial activity of cefepime in combination with taniborbactam (formerly VNRX-5133) against clinical isolates of Enterobacterales collected fro || [14]; 14 Kalamatas J , Hackel M , Wise M , Sahm D . 2020 . Antimicrobial activity of cefepime in combination with taniborbactam (formerly VNRX-5133) against a 2018–2019 surveillance collection of Pseudomona; conditions: cited from earlier work

**Q.** Which results are given for `NCCN[C@H]1CC[C@H](CC(=O)N[C@H]2Cc3cccc(C(=O)O)c3OB2O)CC1` [Taniborbactam]?
**A.** deaths, serious adverse events, adverse events leading to discontinuation ([1]; SAD and MAD parts): no deaths, serious adverse events, or adverse events leading to discontinuation; Adverse event: Abdominal pain ([1]; in vivo): 1 (2.8) No. (%); Adverse event: Arthralgia ([1]; in vivo): 1 (2.8) No. (%); Adverse event: Back pain ([1]; in vivo): 1 (2.8) No. (%); Adverse event: Headache ([1]; in vivo): 1 (2.8) No. (%); Adverse event: Increased blood CPK ([1]; in vivo): 1 (2.8) No. (%); Adverse event: Increased hepatic enzyme ([1]; in vivo): 1 (2.8) No. (%); Adverse event: Migraine ([1]; in vivo): 1 (2.8) No. (%); Adverse event: Nausea ([1]; in vivo): 1 (2.8) No. (%); Adverse event: Pharyngitis ([1]; in vivo): 0 (0.0) No. (%); Adverse event: Viral URI ([1]; in vivo): 1 (2.8) No. (%); Adverse event: Vomiting ([1]; in vivo): 1 (2.8) No. (%); changes in vital signs, clinical laboratory evaluations, ECGs, physical examinations ([1]; in vivo): no clinically significant changes; subjects with adverse events considered by the investigator to be related to treatment ([1]; in vivo): 1 subject; AUCtau ([2]; 250 mg q8h, day 1): 34,447 (17.2) h · ng/ml; Cmax ([2]; 250 mg q8h, day 1): 10,544 (18.3) ng/ml; Tmax ([2]; 250 mg q8h, day 1): 2.0 (2.0, 2.1) h; AUCtau ([2]; 250 mg q8h, day 10): 41,563 (15.1) h · ng/ml; CLR,SS ([2]; 250 mg q8h, day 10): 5.2 (17.3) liters/h; CLSS ([2]; 250 mg q8h, day 10): 6.2 (15.9) liters/h; Cmax ([2]; 250 mg q8h, day 10): 11,188 (16.5) ng/ml; Vz ([2]; 250 mg q8h, day 10): 36.0 (28.3) liters; Tmax ([2]; 250 mg q8h, day 10): 2.0 (2.0, 2.1) h; t1/2 ([2]; 250 mg q8h, day 10): 4.1 (29.3) h; Ae ([2]; 250 mg q8h, day 10): 211.0 (11.8) mg; Fe ([2]; 250 mg q8h, day 10): 84.4 (11.8) %; Fe ([2]; 250 mg q8h, day 10, listed as taniborbactam): 84.4%; AUCtau mean ratio, last dose compared to first dose ([2]; 250 mg q8h): 1.21; AUCtau ([2]; 500 mg q8h, day 1): 81,890 (14.7) h · ng/ml; Cmax ([2]; 500 mg q8h, day 1): 25,778 (15.2) ng/ml; Tmax ([2]; 500 mg q8h, day 1): 2.0 (2.0, 2.1) h; AUCtau ([2]; 500 mg q8h, day 10): 89,103 (13.8) h · ng/ml; CLR,SS ([2]; 500 mg q8h, day 10): 5.3 (14.2) liters/h; CLSS ([2]; 500 mg q8h, day 10): 5.7 (12.6) liters/h; Cmax ([2]; 500 mg q8h, day 10): 26,533 (13.0) ng/ml; Vz ([2]; 500 mg q8h, day 10): 39.8 (14.3) liters; Tmax ([2]; 500 mg q8h, day 10): 2.0 (2.0, 2.3) h; t1/2 ([2]; 500 mg q8h, day 10): 4.9 (13.3) h; Ae ([2]; 500 mg q8h, day 10): 462.2 (10.2) mg; Fe ([2]; 500 mg q8h, day 10): 92.4 (10.2) %; Fe ([2]; 500 mg q8h, day 10, listed as taniborbactam): 92.4%; AUCtau mean ratio, last dose compared to first dose ([2]; 500 mg q8h): 1.09; AUCtau ([2]; 750 mg q8h, day 1): 119,140 (18.0) h · ng/ml; Cmax ([2]; 750 mg q8h, day 1): 39,122 (23.7) ng/ml; Tmax ([2]; 750 mg q8h, day 1): 2.0 (2.0, 2.3) h; AUCtau ([2]; 750 mg q8h, day 10): 139,518 (21.6) h · ng/ml; CLR,SS ([2]; 750 mg q8h, day 10): 5.2 (28.6) liters/h; CLSS ([2]; 750 mg q8h, day 10): 5.6 (21.1) liters/h; Cmax ([2]; 750 mg q8h, day 10): 38,778 (18.2) ng/ml; Vz ([2]; 750 mg q8h, day 10): 37.4 (19.9) liters; Tmax ([2]; 750 mg q8h, day 10): 2.0 (2.0, 2.3) h; t1/2 ([2]; 750 mg q8h, day 10): 4.7 (15.4) h; Ae ([2]; 750 mg q8h, day 10): 692.2 (21.7) mg; Fe ([2]; 750 mg q8h, day 10): 92.3 (21.7) %; Fe ([2]; 750 mg q8h, day 10, listed as taniborbactam): 92.3%; AUCtau mean ratio, last dose compared to first dose ([2]; 750 mg q8h): 1.17; administered dose recovered in urine as intact drug ([2]; at steady state): approximately 90%; potentiation of cefepime activity as measured by the MIC90 [3]: 4 fold
